From ChEMBL document CHEMBL2169878 (J Med Chem, 2012)

Experiments:
Liver = experiment: Drug uptake in CD1 albino mouse liver at 50 mg/kg, po at 6 to 48 hrs; type: ADME, organism-based; parameters: dose 50 mg/kg, route oral; conditions: in vivo
[1] = Cytotoxicity against mouse NIH3T3 cells after 24 hrs by neutral red dye uptake assay; type: cell-based; conditions: read-out: TC50
Heart [2] = experiment: Cardiotoxicity against Sprague-Dawley rat Langendorff perfused heart assessed as cycle length time at 30 uM by electrophysiological analysis (reference value: 258.62 8.87 ms); type: toxicity, tissue-based
Heart [3] = experiment: Cardiotoxicity against Sprague-Dawley rat Langendorff perfused heart assessed as heart rate at 30 uM by electrophysiological analysis (reference value: 236.68 7.83 bpm); type: toxicity, tissue-based

Clc1ccc(C(Nc2ccnc3cc(Cl)ccc23)c2ccc(CN3CCNCC3)cc2)cc1 (racemic)
Drug uptake (Liver): Not Active | CC50 at 24 h [1]: 1800 nM | Time (Heart [2]): 317 ms | Activity (Heart [3]): 116.31 bpm
